Values joined by “and” are separate entries in the source; they are usually repeats but may differ in a detail not shown here. Equal values may be shown once.
What was measured:
human IGF-1 receptor = human IGF-1 receptor (Homo sapiens, UniProt P08069); assay: IGF-1 receptor binding assay (competition, scintillation proximity); details: Table 3, relative to IGF-1 in the same test
insulin receptor [1] = molecular target: T1, insulin receptor (Homo sapiens, UniProt P06213); assay: Insulin receptor binding assay (competition, scintillation proximity); details: for Ratio: Table 3, IGF-1 receptor IC50 over insulin receptor IC50
glucagon receptor = molecular target: T2, glucagon receptor (Homo sapiens, UniProt P47871); assay: Glucagon functional assay, cAMP synthesis (luciferase reporter, HEK293 cells); format: cell-based; details: FIG. 12
T2 construct: expressed in transfected cells; host or cells: HEK293

insulin receptor [2] = molecular target: T1, insulin receptor; assay: Insulin receptor phosphorylation assay in receptor transfected HEK293 cells; format: cell-based; parameters: expressed in transfected cells; host or cells: HEK293; details: FIGS. 10 and 11

human IGF-1 receptor, sequence (P08069 31-736 limits assumed): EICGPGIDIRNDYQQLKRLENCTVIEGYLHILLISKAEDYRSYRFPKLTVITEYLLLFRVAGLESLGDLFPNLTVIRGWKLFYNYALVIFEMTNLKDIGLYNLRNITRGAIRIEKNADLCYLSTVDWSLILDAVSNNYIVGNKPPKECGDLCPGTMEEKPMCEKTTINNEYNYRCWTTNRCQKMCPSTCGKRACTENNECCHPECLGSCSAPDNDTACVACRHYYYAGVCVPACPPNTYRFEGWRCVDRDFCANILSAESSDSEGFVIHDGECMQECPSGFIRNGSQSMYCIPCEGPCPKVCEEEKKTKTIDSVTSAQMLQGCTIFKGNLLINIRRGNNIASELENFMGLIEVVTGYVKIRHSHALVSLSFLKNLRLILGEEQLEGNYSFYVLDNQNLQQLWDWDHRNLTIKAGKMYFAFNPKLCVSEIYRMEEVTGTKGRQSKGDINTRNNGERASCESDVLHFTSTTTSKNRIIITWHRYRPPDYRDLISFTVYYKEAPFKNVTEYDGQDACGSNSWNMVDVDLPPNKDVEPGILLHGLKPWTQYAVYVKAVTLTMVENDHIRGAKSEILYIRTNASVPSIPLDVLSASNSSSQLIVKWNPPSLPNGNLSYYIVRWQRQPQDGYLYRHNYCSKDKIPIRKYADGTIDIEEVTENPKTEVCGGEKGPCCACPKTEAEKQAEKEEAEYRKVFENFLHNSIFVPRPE
human IGF-1 receptor, sequence (P08069 741-1367 partner limits assumed): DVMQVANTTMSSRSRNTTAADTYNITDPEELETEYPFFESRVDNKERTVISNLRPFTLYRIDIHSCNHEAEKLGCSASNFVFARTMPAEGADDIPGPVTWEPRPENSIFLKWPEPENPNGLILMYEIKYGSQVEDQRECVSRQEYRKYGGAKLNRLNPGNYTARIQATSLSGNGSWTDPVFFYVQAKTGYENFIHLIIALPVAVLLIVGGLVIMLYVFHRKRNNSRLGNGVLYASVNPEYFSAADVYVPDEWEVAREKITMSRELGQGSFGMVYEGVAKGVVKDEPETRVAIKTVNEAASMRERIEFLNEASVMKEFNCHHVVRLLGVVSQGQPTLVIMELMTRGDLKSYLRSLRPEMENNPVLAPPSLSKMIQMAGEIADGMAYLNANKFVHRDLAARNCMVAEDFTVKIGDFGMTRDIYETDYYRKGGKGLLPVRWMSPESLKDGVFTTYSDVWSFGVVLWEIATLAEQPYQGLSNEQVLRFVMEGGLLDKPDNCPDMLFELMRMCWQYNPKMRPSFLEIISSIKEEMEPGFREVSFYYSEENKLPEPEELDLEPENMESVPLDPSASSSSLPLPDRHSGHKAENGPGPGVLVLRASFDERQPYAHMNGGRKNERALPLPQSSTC

## CC[C@H](C)[C@H](NC(=O)CN)C(=O)N[C@H](C(=O)N[C@@H](CC(=O)O)C(=O)N[C@@H](CCC(=O)O)C(=O)N[C@H]1CSSC[C@@H]2NC(=O)[C@H](CO)NC(=O)[C@H](CCCNC(=N)N)NC(=O)[C@H](Cc3ccccc3)NC(=O)[C@H](CSSC[C@H](NC(=O)[C@H](CC(C)C)NC(=O)[C@H](Cc3c[nH]cn3)NC(=O)[C@H](CCC(N)=O)NC(=O)[C@H](CC(N)=O)NC(=O)[C@@H](NC(=O)[C@@H](N)Cc3ccccc3)C(C)C)C(=O)NCC(=O)N[C@@H](CO)C(=O)N[C@@H](Cc3c[nH]cn3)C(=O)N[C@@H](CC(C)C)C(=O)N[C@@H](C(C)C)C(=O)N[C@@H](CCC(=O)O)C(=O)N[C@@H](C)C(=O)N[C@@H](CC(C)C)C(=O)N[C@@H](Cc3ccc(O)cc3)C(=O)N[C@@H](CC(C)C)C(=O)N[C@@H](C(C)C)C(=O)N[C@H](C(=O)NCC(=O)N[C@@H](CC(=O)O)C(=O)N[C@@H](CCCNC(=N)N)C(=O)NCC(=O)N[C@@H](Cc3ccccc3)C(=O)N[C@@H](Cc3ccc(O)cc3)C(=O)N[C@@H](Cc3ccccc3)C(=O)N[C@@H](CC(N)=O)C(=O)N[C@@H](CCCCN)C(=O)N3CCC[C@H]3C(=O)N[C@H](C(N)=O)[C@@H](C)O)CSSC[C@@H](C(=O)N[C@@H](C)C(N)=O)NC(=O)[C@H](Cc3ccc(O)cc3)NC(=O)[C@H](CCSC)NC(=O)[C@H](CCC(=O)O)NC(=O)[C@H](CC(C)C)NC(=O)[C@H](CCCNC(=N)N)NC(=O)[C@H](CCCNC(=N)N)NC(=O)[C@H](CC(C)C)NC(=O)[C@H](CC(=O)O)NC2=O)NC1=O)C(C)C [IGF-1 A: In (1-17)-IGF-1 B (18-30)]
Human IGF-1 receptor
  IGF-1 Receptor % IGF-1 (in test): 0.9%
Insulin receptor [1]
  Ratio: 22.6
Insulin receptor [1]; Table 3, relative to insulin in the same test
  Insulin Receptor % insulin (in test): 14.0% and 11.3% and 20.1%
Insulin receptor [1]; Table 3, relative to native insulin taken as 0.6 nM
  Insulin Receptor % native insulin activity (0.6 nM): 21.7% and 22.5% and 24.2%

## GLP-1: native GLP-1: GLP-1(7-36) amide SEQ ID NO: 703 or GLP-1(7-37) acid SEQ ID NO: 704 [reference compound]
Glucagon receptor
  in vitro glucagon receptor activity (EC50 values, in words): poor activity at the glucagon receptor
Insulin receptor [2]
  in vitro insulin receptor activity (EC50 values, in words): poor activity at the insulin receptor

## CC[C@H](C)[C@H](NC(=O)CN)C(=O)N[C@H](C(=O)N[C@@H](CC(=O)O)C(=O)N[C@@H](CCC(=O)O)C(=O)N[C@H]1CSSC[C@@H]2NC(=O)[C@H](CO)NC(=O)[C@H](CCCNC(=N)N)NC(=O)[C@H](Cc3ccccc3)NC(=O)[C@H](CSSC[C@H](NC(=O)[C@H](CC(C)C)NC(=O)[C@@H](NC(=O)[C@H](CCC(=O)O)NC(=O)[C@@H]3CCCN3C(=O)CN)[C@@H](C)O)C(=O)NCC(=O)N[C@@H](C)C(=O)N[C@@H](CCC(=O)O)C(=O)N[C@@H](CC(C)C)C(=O)N[C@@H](C(C)C)C(=O)N[C@@H](CC(=O)O)C(=O)N[C@@H](C)C(=O)N[C@@H](CC(C)C)C(=O)N[C@@H](Cc3ccc(O)cc3)C(=O)N[C@@H](CC(C)C)C(=O)N[C@@H](C(C)C)C(=O)N[C@H](C(=O)NCC(=O)N[C@@H](CC(=O)O)C(=O)N[C@@H](CCCNC(=N)N)C(=O)NCC(=O)N[C@@H](Cc3ccccc3)C(=O)N[C@@H](Cc3ccc(O)cc3)C(=O)N[C@@H](Cc3ccccc3)C(=O)N[C@@H](CC(N)=O)C(=O)N[C@@H](CCCCN)C(=O)N3CCC[C@H]3C(=O)N[C@H](C(N)=O)[C@@H](C)O)CSSC[C@@H](C(=O)N[C@@H](C)C(N)=O)NC(=O)[C@H](Cc3ccc(O)cc3)NC(=O)[C@H](CCSC)NC(=O)[C@H](CCC(=O)O)NC(=O)[C@H](CC(C)C)NC(=O)[C@H](CCCNC(=N)N)NC(=O)[C@H](CCCNC(=N)N)NC(=O)[C@H](CC(C)C)NC(=O)[C@H](CC(=O)O)NC2=O)NC1=O)C(C)C [IGF1 (Y^B16L^B17)]
Insulin receptor [1]; FIGS. 2-4, Tables 1 and 2
  insulin receptor binding relative to native insulin (in words): highly potent agonists of the insulin receptor
Insulin receptor [1]; Table 2, relative to Insulin Standard
  % of Insulin Activity: 262%

## CC[C@H](C)[C@H](NC(=O)CN)C(=O)N[C@H](C(=O)N[C@@H](CC(=O)O)C(=O)N[C@@H](CCC(=O)O)C(=O)N[C@H]1CSSC[C@@H]2NC(=O)[C@H](CO)NC(=O)[C@H](CCCNC(=N)N)NC(=O)[C@H](Cc3ccccc3)NC(=O)[C@H](CSSC[C@H](NC(=O)[C@H](CC(C)C)NC(=O)[C@@H](NC(=O)[C@H](CCC(=O)O)NC(=O)[C@@H]3CCCN3C(=O)CN)[C@@H](C)O)C(=O)NCC(=O)N[C@@H](CO)C(=O)N[C@@H](Cc3c[nH]cn3)C(=O)N[C@@H](CC(C)C)C(=O)N[C@@H](C(C)C)C(=O)N[C@@H](CCC(=O)O)C(=O)N[C@@H](C)C(=O)N[C@@H](CC(C)C)C(=O)N[C@@H](Cc3ccc(O)cc3)C(=O)N[C@@H](CC(C)C)C(=O)N[C@@H](C(C)C)C(=O)N[C@H](C(=O)NCC(=O)N[C@@H](CC(=O)O)C(=O)N[C@@H](CCCNC(=N)N)C(=O)NCC(=O)N[C@@H](Cc3ccccc3)C(=O)N[C@@H](Cc3ccc(O)cc3)C(=O)N[C@@H](Cc3ccccc3)C(=O)N[C@@H](CC(N)=O)C(=O)N[C@@H](CCCCN)C(=O)N3CCC[C@H]3C(=O)N[C@H](C(N)=O)[C@@H](C)O)CSSC[C@@H](C(=O)N[C@@H](C)C(N)=O)NC(=O)[C@H](Cc3ccc(O)cc3)NC(=O)[C@H](CCSC)NC(=O)[C@H](CCC(=O)O)NC(=O)[C@H](CC(C)C)NC(=O)[C@H](CCCNC(=N)N)NC(=O)[C@H](CCCNC(=N)N)NC(=O)[C@H](CC(C)C)NC(=O)[C@H](CC(=O)O)NC2=O)NC1=O)C(C)C
Insulin receptor [1]
  Ratio: 82.6
